Test: Ex vivo release of therapeutic agent from insert into phosphate buffer, UV scanning spectrophotometer
Type: physicochemical
Details: drug 20%, phosphate buffer pH 7, 37° C.
Protocol: Ocular Daily Wear is defined by FDA Class II CFR 866.5925 products currently indicated for ocular use and sclera tissue contact.
To begin testing, a UV scanning spectrophotometer concentration calibration curve for the therapeutic agent was established. The insert was prepared to the specification in the particular Table, and the time duration sample plan for measurement was determined. The insert was weighed to establish T=0. The insert was immersed in phosphate buffer of a fixed constant volume. A mean body temperature of 37° C. (e.g., from about 36.5° C. to about 37.5° C.) was simulated for the identified time interval. The insert was transferred and immersed at the end of each time period into a new phosphate buffer test container. The simulated mean 37° C.-body temperature was continued to next time interval. The UV scanning spectrophotometer data was generated for each time interval sample. The release rate was calculated versus time for the therapeutic agent, and graphical plots of the data were generated.

[1] = Table 8, Rod, 2 Component: EVA (40% vinyl acetate) 80%, no PEO
[2] = Table 8, In Device, 3 Component: EVA (40% vinyl acetate) 40%, PEO 40%
[3] = Table 9, In Device, 3 Component: EVA (40% vinyl acetate) 40%, PEO 40%

Row | SMILES | 1 Day % Release [1] [%] | 1 Day % Release [2] [%] | 2 Day % Release [2] [%] | 1 Day % Release (Table 8, In Device, 3 Component: EVA (40% vinyl acetate) 40%, PEO 40%, listed as dexamethasone phosphate) [%] | 1 Day % Release [3] [%] | 2 Day % Release [3] [%]
1 | CC(=O)OCC(=O)[C@@]1(O)[C@H](C)C[C@H]2[C@@H]3CCC4=CC(=O)C=C[C@]4(C)[C@@]3(F)[C@@H](O)C[C@@]21C [Dexamethasone 21 Acetate] | 1.89 |  |  |  |  | 
2 | C[C@@H]1C[C@H]2[C@@H]3CCC4=CC(=O)C=C[C@]4(C)[C@@]3(F)[C@@H](O)C[C@]2(C)[C@@]1(O)C(=O)COP(=O)(O)O [Dexamethasone Phosphate] | 3.39 | 82.7 | 85.3 | 82.7 |  | 
3 | CN(C)CC/C=C1/c2ccccc2COc2ccc(CC(=O)O)cc21 [Olopatadine FB, Olopatadine] |  |  |  |  | 35 | 43
